The values below come from EP4603105A1, “PHARMACEUTICAL COMPOSITION CONTAINING CYCLIC COMPOUND HAVING SELECTIVE KRAS INHIBITORY EFFECT AGAINST HRAS AND NRAS” (CHUGAI SEIYAKU KABUSHIKI KAISHA, priority 2022, dated 2024).

SMILES strings stand for the structures. Where a SMILES comes first, the peptide text is derived from it. Bridges are numbered along the chain shown (N, C = ends). [ ]: non-standard residue; d: D form. The star is where a group is joined. hPhe(3-Cl-4-CF3) = N[C@@H](CCc1ccc(C(F)(F)F)c(Cl)c1)C(=O)O; NPrPhe(4-CF3) = CCCN[C@@H](Cc1ccc(C(F)(F)F)cc1)C(=O)O; NMeGly(cPent) = CN[C@H](C(=O)O)C1CCCC1; Pro(4,4-F2) = O=C(O)[C@@H]1CC(F)(F)CN1; NMeD = CN[C@@H](CC(=O)O)C(=O)O; NMeL = CN[C@@H](CC(C)C)C(=O)O; Morpholide = C1CN(*)CCO1; NMeA = CN[C@@H](C)C(=O)O; Ac5c = NC1(C(=O)O)CCCC1; Aze = O=C(O)[C@@H]1CCN1; NPrGly = CCCNCC(=O)O; Sar = CNCC(=O)O

The target in experiment [1] is GDP-bound NRAS wild-type protein (Homo sapiens, UniProt P01111). Description: Binding to NRAS by surface plasmon resonance (SPR), KD and KD ratio to KRAS. Put shortly: (§1)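 Biotinylated GDP-bound RAS was captured at about 100–300 RU. Running buffer: HBS pH 7.4, 10 mM MgCl2, 10 µM GDP, 1 mM DTT, 0.01% Tween 20, 4% DMSO.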
GDP-bound NRAS wild-type protein, sequence (P01111 whole entry): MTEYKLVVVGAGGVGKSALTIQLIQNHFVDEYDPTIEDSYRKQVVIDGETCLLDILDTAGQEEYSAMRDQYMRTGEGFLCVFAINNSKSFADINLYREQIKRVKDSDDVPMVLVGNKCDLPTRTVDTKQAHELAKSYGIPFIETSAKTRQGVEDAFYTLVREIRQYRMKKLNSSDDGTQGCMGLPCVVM
Background: SPR reads the build-up and loss of mass on a sensor chip optically.

The target of experiment [2] is HRAS wild-type protein (Homo sapiens, UniProt P01112). As to the kind of experiment: Binding to HRAS by surface plasmon resonance (SPR), KD and KD ratio to KRAS. A digest of the protocol: as §1
HRAS wild-type protein, sequence (P01112 whole entry): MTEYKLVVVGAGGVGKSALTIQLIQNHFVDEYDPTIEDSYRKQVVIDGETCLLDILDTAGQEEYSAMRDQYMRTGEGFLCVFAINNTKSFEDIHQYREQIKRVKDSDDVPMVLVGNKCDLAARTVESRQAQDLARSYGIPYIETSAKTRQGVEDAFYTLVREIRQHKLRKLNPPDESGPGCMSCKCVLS
Experiment [3] has as its system human lung cancer strain NCI-H441. It counts as cell-based. A digest of the protocol: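 Step one: dispense the test compound in serial DMSO dilutions. Step three: add the reagent and measure […].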
Setting [4] is: ratio of the KD value with respect to GDP-bound NRAS wild-type protein to the KD value with respect to KRAS.
Setting [5] is: ratio of the KD value with respect to HRAS wild-type protein to the KD value with respect to KRAS.
The mark [6] stands for this setting: ratio of KD for GDP-bound NRAS wild-type protein to KD for KRAS.
Where [7] appears, read: ratio of KD for HRAS wild-type protein to KD for KRAS.

As for `CC[C@H](C)[C@@H]1NC(=O)[C@H](CC(C)C)NC(=O)C[C@@H](C(=O)N2CCOCC2)N(C)C(=O)[C@H](C2CCCC2)N(C)C(=O)C2(CCCC2)NC(=O)[C@@H]2CCCN2C(=O)[C@H](CCc2cc(F)c(C(F)(F)F)c(F)c2)NC(=O)CN(C)C(=O)[C@H](Cc2ccc(C(F)(F)F)cc2)N2CCCC[C@@H](C2=O)N(C)C(=O)CN(C)C1=O` [PP0590], the “NRAS /KRAS” value in experiment [1] (setting [4]) is “C (A compound having a KD ratio of 0.1 or more and less than 3 is denoted as C)”. Moreover, in experiment [2] (setting [5]), the “HRAS /KRAS” value is “B (a compound having 3 or more and less than 10 is denoted as B)”. Half-maximal inhibition in experiment [3] (IC50) was put at 20.9 nM.
On to `CCC[C@H]1C(=O)N[C@@H]([C@@H](C)CC)C(=O)N(C)CC(=O)N(C)[C@H]2C/C=C\CCN(C2=O)[C@@H](Cc2ccc(C(F)(F)F)cc2)C(=O)N(C)CC(=O)N[C@@H](CCc2cc(F)c(C(F)(F)F)c(F)c2)C(=O)N(C)[C@@H](C)C(=O)NC2(CC(C)(C)C2)C(=O)N(C)[C@@H](C2CCCC2)C(=O)N(C)[C@H](C(=O)N(C)C)CC(=O)N1C` [PP1934], for which, in experiment [1] (setting [4]), the “NRAS /KRAS” value is “A (a compound having 10 or more and less than 20 is denoted as A)”. Also, the “HRAS /KRAS” value in experiment [2] (setting [5]) is “A (a compound having 10 or more and less than 20 is denoted as A)”. Besides, half-maximal inhibition in experiment [3] (IC50) was put at 68.5 nM.
For `CCCN1CC(=O)NC2(CCCC2)C(=O)N(C)[C@@H](C2CCCC2)C(=O)N(C)[C@H](C(=O)N2CCOCC2)CC(=O)N(C)[C@@H](CC(C)C)C(=O)N[C@@H]([C@@H](C)CC)C(=O)N(C)[C@@H](C)C(=O)N2CC[C@H]2C(=O)N(CCC)[C@@H](Cc2ccc(C(F)(F)F)cc2)C(=O)N(C)CC(=O)N[C@@H](CCc2ccc(C(F)(F)F)c(Cl)c2)C1=O` [PP0288] ([NMeL]I[NMeA][Aze][NPrPhe(4-CF3)][Sar][hPhe(3-Cl-4-CF3)][NPrGly][Ac5c][NMeGly(cPent)][NMeD]-Morpholide; lactam N-11), in experiment [1] (setting [6]), the “NRAS /KRAS” value was “C (A compound having a KD ratio of 0.1 or more and less than 3 is denoted as C)”. The “HRAS /KRAS” value in experiment [2] (setting [7]) is “B (a compound having 3 or more and less than 10 is denoted as B)”. Besides, inhibition in experiment [3] was half-maximal at 14.3 nM (IC50).
Consider `CCC[C@H]1C(=O)N[C@@H]([C@@H](C)CC)C(=O)N2CCC[C@H]2C(=O)N(C)[C@H]2C/C=C\CCN(C2=O)[C@@H](Cc2ccc(C)cc2)C(=O)N(C)CC(=O)N[C@@H](CCc2cc(F)c(C(F)(F)F)c(F)c2)C(=O)N2C[C@H](OCC)C[C@H]2C(=O)N(C)C2(CCC2)C(=O)N(C)[C@@H](C2CCCC2)C(=O)N(C)[C@H](C(=O)N2CCCC2)CC(=O)N1C` [PP3117], for which the “NRAS /KRAS” value in experiment [1] (setting [6]) is “A (a compound having 10 or more and less than 20 is denoted as A)”. The “HRAS /KRAS” value in experiment [2] (setting [7]) is “A (a compound having 10 or more and less than 20 is denoted as A)”. Also, 2.6 nM corresponded to half-maximal inhibition in experiment [3] (IC50).
Take `CC[C@H](C)[C@@H]1NC(=O)[C@H](CC(C)C)N(C)C(=O)C[C@@H](C(=O)N2CCOCC2)N(C)C(=O)[C@H](C2CCCC2)N(C)C(=O)C2(CCC2)NC(=O)[C@@H]2C[C@@H](C(F)(F)F)CN2C(=O)[C@H](CCc2cc(F)c(C(F)(F)F)c(F)c2)NC(=O)CN(C)C(=O)[C@H](Cc2ccc(C(F)(F)F)cc2)N2CCCC[C@@H](C2=O)N(C)C(=O)CN(C)C1=O` [PP0809]: in experiment [1] (setting [6]), the “NRAS /KRAS” value was “B (a compound having 3 or more and less than 10 is denoted as B)”. Besides, the “HRAS /KRAS” value in experiment [2] (setting [7]) was “B (a compound having 3 or more and less than 10 is denoted as B)”. Besides, in experiment [3], the midpoint of inhibition, the IC50, lay at 8.4 nM.
With `CCCN(C)C(=O)[C@@H]1CC(=O)N(C)[C@@H](COCC)C(=O)N[C@@H]([C@@H](C)CC)C(=O)N(C)CC(=O)N(C)[C@H]2C/C=C\CCN(C2=O)[C@@H](Cc2ccc(C(F)(F)F)cc2)C(=O)N(C)CC(=O)N[C@@H](CCc2cc(F)c(C(F)(F)F)c(F)c2)C(=O)N2C[C@H](OCC)C[C@H]2C(=O)NC2(CCC2)C(=O)N(C)[C@@H](C2CCCC2)C(=O)N1C` [PP1988], in experiment [1] (setting [4]), the “NRAS /KRAS” value was “A (a compound having 10 or more and less than 20 is denoted as A)”. For the same molecule, the “HRAS /KRAS” value in experiment [2] (setting [5]) was “A (a compound having 10 or more and less than 20 is denoted as A)”. In addition, the half-maximal inhibitory concentration (IC50) (in general, the midpoint of a concentration-inhibition curve) in experiment [3] worked out at 11 nM.
As for `CCCN1C(=O)[C@@H]2CCN2C(=O)CN(C)C(=O)[C@H]([C@@H](C)CC)NC(=O)[C@H](CC(C)C)N(C)C(=O)C[C@@H](C(=O)N2CCOCC2)NC(=O)[C@H](C2CCCC2)N(C)C(=O)C2(CCCC2)NC(=O)[C@@H]2CC(F)(F)CN2C(=O)[C@H](CCc2ccc(C(F)(F)F)c(Cl)c2)NC(=O)CN(C)C(=O)[C@@H]1Cc1ccc(C(F)(F)F)cc1` [PP0351] ([NMeL]I[Sar][Aze][NPrPhe(4-CF3)][Sar][hPhe(3-Cl-4-CF3)][Pro(4,4-F2)][Ac5c][NMeGly(cPent)]D-Morpholide; lactam N-11), the “NRAS /KRAS” value in experiment [1] (setting [6]) was “C (A compound having a KD ratio of 0.1 or more and less than 3 is denoted as C)”. In addition, in experiment [2] (setting [7]), the “HRAS /KRAS” value was “B (a compound having 3 or more and less than 10 is denoted as B)”. Moreover, inhibition in experiment [3] was half-maximal at 39 nM (IC50).
For `CCC(CC)[C@H]1C(=O)N(C)[C@H](C(=O)N(C)C)CC(=O)N(C)[C@@H](COC)C(=O)N[C@@H]([C@@H](C)CC)C(=O)N(C)CC(=O)N(C)[C@H]2C/C=C\CCN(C2=O)[C@@H](Cc2ccc(C(F)(F)F)cc2)C(=O)N(C)CC(=O)N[C@@H](CCc2cc(F)c(C(F)(F)F)c(F)c2)C(=O)N2CCCC[C@H]2C(=O)NC2(CC(C)(C)C2)C(=O)N1C` [PP2916], in experiment [1] (setting [6]), the “NRAS /KRAS” value was “A (a compound having 10 or more and less than 20 is denoted as A)”. In experiment [2] (setting [7]), the “HRAS /KRAS” value is “A (a compound having 10 or more and less than 20 is denoted as A)”. The same molecule returned an IC50 in experiment [3] of 106 nM.
Take `CCC[C@H]1C(=O)N[C@@H]([C@@H](C)CC)C(=O)N(C)CC(=O)N(C)[C@H]2C/C=C\CCN(C2=O)[C@@H](Cc2ccc(C)cc2)C(=O)N(C)CC(=O)N[C@@H](CCc2ccc(C(F)(F)F)c(Cl)c2)C(=O)N2C[C@H](OCC)C[C@H]2C(=O)NC2(CCC2)C(=O)N(C)[C@@H](C2CCCC2)C(=O)N(C)[C@H](C(=O)N(C)CC)CC(=O)N1C` [PP1895]: the “NRAS /KRAS” value in experiment [1] (ratio of KD value for GDP-bound NRAS wild-type protein to KD value for KRAS (SPR)) was “A (a compound having 10 or more and less than 20 is denoted as A)”. Also, the “HRAS /KRAS” value in experiment [2] (ratio of KD value for HRAS wild-type protein to KD value for KRAS (SPR)) is “B (a compound having 3 or more and less than 10 is denoted as B)”. In experiment [3], it took 15.6 nM to reach half-maximal inhibition (IC50).
Consider `CCC[C@H]1C(=O)N[C@@H]([C@@H](C)CC)C(=O)N2CCC[C@H]2C(=O)N(C)[C@H]2C/C=C\CCN(C2=O)[C@@H](Cc2ccc(C)cc2)C(=O)N(C)CC(=O)N[C@@H](CCc2cc(F)c(C(F)(F)F)c(F)c2)C(=O)N2C[C@H](OCC)C[C@H]2C(=O)N(C)C2(CCC2)C(=O)N(C)[C@@H](C2CCCC2)C(=O)N(C)[C@H](C(=O)N2CCCCC2)CC(=O)N1C` [PP3115], for which, in experiment [1] (setting [6]), the “NRAS /KRAS” value is “A (a compound having 10 or more and less than 20 is denoted as A)”. The “HRAS /KRAS” value in experiment [2] (setting [7]) is “B (a compound having 3 or more and less than 10 is denoted as B)”. In experiment [3], this molecule had an IC50 of 5.7 nM.
Consider `CCO[C@@H]1C[C@H]2C(=O)NC3(CCCC3)C(=O)N(C)[C@@H](C3CCCC3)C(=O)N(C)[C@H](C(=O)N3CCOCC3)CC(=O)N(C)[C@@H](COC)C(=O)N[C@@H]([C@@H](C)CC)C(=O)N(C)CC(=O)N(C)[C@H]3CCCCCN(C3=O)[C@@H](Cc3ccc(C(F)(F)F)cc3)C(=O)N(C)CC(=O)N[C@@H](CCc3cc(F)c(C(F)(F)F)c(F)c3)C(=O)N2C1` [PP0841], for which the “NRAS /KRAS” value in experiment [1] (setting [6]) is “B (a compound having 3 or more and less than 10 is denoted as B)”. Also, the “HRAS /KRAS” value in experiment [2] (setting [7]) is “B (a compound having 3 or more and less than 10 is denoted as B)”. The molecule also came in with a half-inhibitory concentration (IC50) in experiment [3] of 112 nM.
